Source: ChEMBL document CHEMBL3044532, “Integrated control of cotton root rot disease by mixing fungal biocontrol agents and resistance inducers” (2009)

Legend:
Assay type in all cases: functional
Gossypium barbadense [1] = assay: Induction of systemic acquired resistance against Fusarium oxysporum AUSB 26325 in Gossypium barbadense seeds assessed as increase of dry weight of seedling under greenhouse condition at 0.05 ml/L after 7 days
Gossypium barbadense [2] = assay: Induction of systemic acquired resistance against Pythium debaryanum AUSB 26351 in Gossypium barbadense seeds assessed as increase of dry weight of seedling under greenhouse condition at 0.05 ml/L after 7 days
Gossypium barbadense [3] = assay: Induction of systemic acquired resistance against Fusarium oxysporum AUSB 26325 in Gossypium barbadense seeds assessed as increase of fresh weight of seedling under greenhouse condition at 0.05 ml/L after 7 days
Gossypium barbadense [4] = assay: Induction of systemic acquired resistance against Pythium debaryanum AUSB 26351 in Gossypium barbadense seeds assessed as reduction of disease index for germination under greenhouse condition at 0.05 ml/L after 7 days relative to infected control; parameters: scale not given: the % may be the effect or the level left
Gossypium barbadense [5] = assay: Induction of systemic acquired resistance against Fusarium oxysporum AUSB 26325 in Gossypium barbadense seeds assessed as reduction of disease index for germination under greenhouse condition at 0.05 ml/L after 7 days relative to infected control; parameters: scale not given: the % may be the effect or the level left
Gossypium barbadense [6] = assay: Induction of systemic acquired resistance against Pythium debaryanum AUSB 26351 in Gossypium barbadense seeds assessed as increase of germination under greenhouse condition at 0.05 ml/L after 7 days relative to control
Gossypium barbadense [7] = assay: Induction of systemic acquired resistance against Fusarium oxysporum AUSB 26325 in Gossypium barbadense seeds assessed as increase of germination under greenhouse condition at 0.05 ml/L after 7 days relative to control
Gossypium barbadense [8] = assay: Induction of systemic acquired resistance against Pythium debaryanum AUSB 26351 in Gossypium barbadense seeds assessed as increase of fresh weight of seedling under greenhouse condition at 0.05 ml/L after 7 days

SMILES: CSC(=O)c1cccc2nnsc12 [ACIBENZOLAR-S-METHYL]
- Activity (Gossypium barbadense [1]): 0.9 g
- Activity (Gossypium barbadense [2]): 0.2 g
- Activity (Gossypium barbadense [3]): 8.3 g
- Activity (Gossypium barbadense [4]): 60%
- Activity (Gossypium barbadense [5]): 45.3%
- Activity (Gossypium barbadense [6]): 40%
- Activity (Gossypium barbadense [7]): 40.7%
- Activity (Gossypium barbadense [8]): 2 g
